We go through 59 molecules from patent publication US20090030039A1, “Piperidine Derivatives as Cxcr3 Receptor Antagonists” (priority 2006, published 2009).

The target in the first assay is T1, human CXCR3 (Homo sapiens, UniProt P49682).
T1 construct: expressed in transfected cells; host or cells: CHO cells (membrane preparation)
T1 sequence (P49682 1-368): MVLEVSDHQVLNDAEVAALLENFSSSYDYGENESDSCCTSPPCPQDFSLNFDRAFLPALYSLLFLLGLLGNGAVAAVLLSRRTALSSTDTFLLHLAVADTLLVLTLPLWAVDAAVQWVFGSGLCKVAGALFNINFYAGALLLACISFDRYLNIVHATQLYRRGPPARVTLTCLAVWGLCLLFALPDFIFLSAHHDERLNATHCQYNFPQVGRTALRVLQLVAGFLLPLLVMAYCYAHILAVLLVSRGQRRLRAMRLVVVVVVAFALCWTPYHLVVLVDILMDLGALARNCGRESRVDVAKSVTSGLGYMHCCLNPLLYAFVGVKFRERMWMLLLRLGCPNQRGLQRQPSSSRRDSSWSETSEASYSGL
Nature of the assay: [35S]GTPγS exchange assay, CXCR3 receptor inhibition (hI-TAC-induced GTPγS-binding). It is filed as biochemical. The following applies: -log IC50 (molar) inhibiting 50% of specific I-TAC-induced GTPγS-binding; membranes of human CXCR3-transfected CHO cells. How it is done:
CXCR3 Receptor Inhibition was Examined in a [^35S]GTPγS Exchange Assay
The exchange of guanosine 5′-[^35S]triphosphate was measured on membranes of human CXCR3-transfected CHO cells. [^35S]GTPγS exchange assays were performed in 96-well plates with 10 μg of membrane protein/well using basic flashplates (Perkin Elmer). Compounds were dissolved in DMSO and diluted with incubation buffer to yield required concentrations with 9% DMSO. Incubation buffer is composed of 20 mM HEPES, 100 mM NaCl, 3 μM GDP and 1 mM MgCl2, pH 7.4. […] Compound, membranes, hI-TAC (interferon-inducible T-cell alpha chemoattractant) and [^35S]GTPγS were added in a total volume of 200 μl. First, 20 μl of the appropriate compound dilution and 140 μl membranes from CXCR3-CHO cells were dissolved in membrane incubation buffer and pre-incubated for 30 minutes at 30° C. Then, 20 μl of hI-TAC dissolved at 30 nM in incubation buffer was added to the membranes and the mixture containing 1% of DMSO was incubated for another 30 minutes at 30° C. […] After 1 minute shaking and 30 minutes incubation at 30° C., flashplates were centrifuged for 5 minutes at 2500 rpm at room temperature. Flashplate bound radioactivity was determined by liquid scintillation counting. Basal GTPγS-binding was measured in 8 wells with membranes incubated in the same volume with 1% DMSO, without I-TAC. Maximal GTPγS-binding was measured in 8 wells with membranes incubated with 1% DMSO and 3 nM I-TAC. […] IC50 values were calculated using non-linear regression in Graphpad Prism.
(In general: GTPγS is a poorly hydrolysed GTP analogue; its binding reports G protein activation.)
In turn, `O=C1CCC(c2ccccc2)(C2CCN(Cc3ccc(Cl)c(Cl)c3)CC2)C(=O)N1` (centres unmarked) [Compound 80] came in with a pIC50 of 5.9.

In turn, `O=C1CCC(c2cccc(C(=O)NCCCO)c2)(C2CCN(Cc3ccc(Br)cc3)CC2)C(=O)N1` (centres unmarked) [Compound 91] gave a pIC50 of 5.9.

The same assay, now with this note: -log IC50 (molar) inhibiting 50% of specific I-TAC-induced GTPγS-binding; membranes of human CXCR3-transfected CHO cells; read-out: pIC50 (converted).
As to `O=C1CCC(c2ccccc2)(C2CCN(Cc3ccc(F)c(Br)c3)CC2)C(=O)N1` (centres unmarked) [Compound 57], the IC50 is 3980 nM.

As for `O=C1CCC(c2ccc(F)cc2)(C2CCN(Cc3ccc(F)c(Br)c3)CC2)C(=O)N1` (centres unmarked) [Compound 58], the IC50 is 7940 nM.

`Cc1cc(CN2CCC(C3(c4ccccc4)CCC(=O)NC3=O)CC2)ccc1F` (centres unmarked) [Compound 59]: the IC50 was 1260 nM.

With `COc1cc(CN2CCC(C3(c4ccccc4)CCC(=O)NC3=O)CC2)ccc1F` (centres unmarked) [Compound 60], the IC50 was 3160 nM.

As to `O=C1CCC(c2ccccc2)(C2CCN(Cc3ccc(Cl)cc3)CC2)C(=O)N1` (centres unmarked) [Compound 61], the IC50 was 1000 nM.

`O=C1CCC(c2ccccc2)(C2CCN(Cc3ccc(Cl)cc3)CC2)C(=O)N1` (centres unmarked) [Compound 62]: the IC50 was 794 nM.

Turning to `O=C1CCC(c2cccc(Cl)c2)(C2CCN(Cc3ccc(Cl)cc3)CC2)C(=O)N1` (centres unmarked) [Compound 63], the IC50 is 2000 nM.

For the molecule `Cc1cccc(C2(C3CCN(Cc4ccc(Cl)cc4)CC3)CCC(=O)NC2=O)c1` (centres unmarked) [Compound 64], the IC50 was 2000 nM.

For the molecule `O=C1CCC(c2cccc(C(=O)O)c2)(C2CCN(Cc3ccc(Cl)cc3)CC2)C(=O)N1` (centres unmarked) [Compound 66], the IC50 was 794 nM.

`COc1cccc(C2(C3CCN(Cc4ccc(Cl)cc4)CC3)CCC(=O)NC2=O)c1` (centres unmarked) [Compound 67]: the IC50 was 1000 nM.

`O=C1CCC(c2ccc(F)cc2)(C2CCN(Cc3ccc(Cl)cc3)CC2)C(=O)N1` (centres unmarked) [Compound 68]: the IC50 was 794 nM.

Consider `COc1ccc(C2(C3CCN(Cc4ccc(Cl)cc4)CC3)CCC(=O)NC2=O)cc1` (centres unmarked) [Compound 69], for which the IC50 is 3160 nM.

Take `O=C1CCC(c2ccccc2)(C2CCN(Cc3ccc(Cl)cc3Cl)CC2)C(=O)N1` (centres unmarked) [Compound 70]: the IC50 was 2510 nM.

Take `O=C1CCC(c2cccc(Cl)c2)(C2CCN(Cc3ccc(Cl)cc3Cl)CC2)C(=O)N1` (centres unmarked) [Compound 71]: the IC50 was 2510 nM.

On to `Cc1cccc(C2(C3CCN(Cc4ccc(Cl)cc4Cl)CC3)CCC(=O)NC2=O)c1` (centres unmarked) [Compound 72], for which the IC50 was 6310 nM.

Regarding `O=C1CCC(c2cccc(C(=O)O)c2)(C2CCN(Cc3ccc(Cl)cc3Cl)CC2)C(=O)N1` (centres unmarked) [Compound 73], the IC50 is 501 nM.

Regarding `COc1cccc(C2(C3CCN(Cc4ccc(Cl)cc4Cl)CC3)CCC(=O)NC2=O)c1` (centres unmarked) [Compound 74], the IC50 was 3980 nM.

For `O=C1CCC(c2ccc(F)cc2)(C2CCN(Cc3ccc(Cl)cc3Cl)CC2)C(=O)N1` (centres unmarked) [Compound 75], the IC50 was 2510 nM.

Turning to `O=C1CCC(c2cccc(Cl)c2)(C2CCN(Cc3ccc(Cl)c(F)c3)CC2)C(=O)N1` (centres unmarked) [Compound 77], the IC50 is 794 nM.

In the case of `Cc1cccc(C2(C3CCN(Cc4ccc(Cl)c(F)c4)CC3)CCC(=O)NC2=O)c1` (centres unmarked) [Compound 78], the IC50 is 794 nM.

As for `COc1cccc(C2(C3CCN(Cc4ccc(Cl)c(F)c4)CC3)CCC(=O)NC2=O)c1` (centres unmarked) [Compound 79], the IC50 was 251 nM.

For `O=C1CCC(c2cccc(Cl)c2)(C2CCN(Cc3ccc(Cl)c(Cl)c3)CC2)C(=O)N1` (centres unmarked) [Compound 81], the IC50 is 3980 nM.

As to `Cc1cccc(C2(C3CCN(Cc4ccc(Cl)c(Cl)c4)CC3)CCC(=O)NC2=O)c1` (centres unmarked) [Compound 82], the IC50 was 3160 nM.

For the molecule `O=C1CCC(c2cccc(C(=O)O)c2)(C2CCN(Cc3ccc(Cl)c(Cl)c3)CC2)C(=O)N1` (centres unmarked) [Compound 83], the IC50 was 398 nM.

With `COc1cccc(C2(C3CCN(Cc4ccc(Cl)c(Cl)c4)CC3)CCC(=O)NC2=O)c1` (centres unmarked) [Compound 84], the IC50 was 2000 nM.

As for `O=C1CCC(c2ccc(F)cc2)(C2CCN(Cc3ccc(Cl)c(Cl)c3)CC2)C(=O)N1` (centres unmarked) [Compound 85], the IC50 was 794 nM.

Take `O=C1CCC(c2cccc(Cl)c2)(C2CCN(Cc3ccc(Br)cc3)CC2)C(=O)N1` (centres unmarked) [Compound 89]: the IC50 is 1580 nM.

On to `O=C1CCC(c2cccc(C(F)(F)F)c2)(C2CCN(Cc3ccc(Br)cc3)CC2)C(=O)N1` (centres unmarked) [Compound 90], for which the IC50 was 1580 nM.

For `O=C1CCC(c2ccc(F)cc2)(C2CCN(Cc3ccc(Br)cc3)CC2)C(=O)N1` (centres unmarked) [Compound 92], the IC50 was 1000 nM.

On to `COc1ccc(C2(C3CCN(Cc4ccc(Br)cc4)CC3)CCC(=O)NC2=O)cc1` (centres unmarked) [Compound 93], for which the IC50 is 3980 nM.

Take `O=C1CCC(c2ccccc2)(C2CCN(Cc3ccc(Br)cc3F)CC2)C(=O)N1` (centres unmarked) [Compound 94]: the IC50 is 501 nM.

For the molecule `O=C1CCC(c2cccc(Cl)c2)(C2CCN(Cc3ccc(Br)cc3F)CC2)C(=O)N1` (centres unmarked) [Compound 95], the IC50 was 1580 nM.

Turning to `O=C1CCC(c2cccc(C(F)(F)F)c2)(C2CCN(Cc3ccc(Br)cc3F)CC2)C(=O)N1` (centres unmarked) [Compound 96], the IC50 is 3160 nM.

On to `O=C1CCC(c2cccc(C(=O)O)c2)(C2CCN(Cc3ccc(Br)cc3F)CC2)C(=O)N1` (centres unmarked) [Compound 97], for which the IC50 was 501 nM.

As for `O=C1CCC(c2ccc(F)cc2)(C2CCN(Cc3ccc(Br)cc3F)CC2)C(=O)N1` (centres unmarked) [Compound 98], the IC50 is 631 nM.

On to `O=C1CCC(c2cccc(C(=O)O)c2)(C2CCN(Cc3ccc(Br)c(F)c3)CC2)C(=O)N1` (centres unmarked) [Compound 99], for which the IC50 is 398 nM.

As for `Cc1ccc(CN2CCC(C3(c4cccc(C)c4)CCC(=O)NC3=O)CC2)cc1` (centres unmarked) [Compound 101], the IC50 is 2510 nM.

As for `O=C1CCC(c2ccccc2)(C2CCN(Cc3ccc(C(F)(F)F)cc3)CC2)C(=O)N1` (centres unmarked) [Compound 102], the IC50 is 3980 nM.

With `O=C1CCC(c2cccc(Cl)c2)(C2CCN(Cc3ccc(C(F)(F)F)cc3)CC2)C(=O)N1` (centres unmarked) [Compound 103], the IC50 was 3980 nM.

In the case of `Cc1cccc(C2(C3CCN(Cc4ccc(C(F)(F)F)cc4)CC3)CCC(=O)NC2=O)c1` (centres unmarked) [Compound 104], the IC50 is 3980 nM.

As for `O=C1CCC(c2ccc(F)cc2)(C2CCN(Cc3ccc(C(F)(F)F)cc3)CC2)C(=O)N1` (centres unmarked) [Compound 106], the IC50 is 3980 nM.

On to `COc1ccc(CN2CCC(C3(c4ccccc4)CCC(=O)NC3=O)CC2)cc1` (centres unmarked) [Compound 107], for which the IC50 is 3980 nM.

As to `COc1ccc(CN2CCC(C3(c4ccccc4)CCC(=O)NC3=O)CC2)c(OC)c1` (centres unmarked) [Compound 108], the IC50 is 7940 nM.

As to `O=C1CCC(c2ccccc2)(C2CCN(Cc3ccc(OC(F)F)cc3)CC2)C(=O)N1` (centres unmarked) [Compound 109], the IC50 is 1000 nM.

Regarding `O=C1CCC(c2cccc(C(F)(F)F)c2)(C2CCN(Cc3ccc(OC(F)F)cc3)CC2)C(=O)N1` (centres unmarked) [Compound 110], the IC50 was 7940 nM.

In the case of `O=C1CCC(c2ccc(F)cc2)(C2CCN(Cc3ccc(OC(F)F)cc3)CC2)C(=O)N1` (centres unmarked) [Compound 111], the IC50 is 1000 nM.

For `O=C1CCC(c2ccccc2)(C2CCN(Cc3ccc(OC(F)(F)F)cc3)CC2)C(=O)N1` (centres unmarked) [Compound 112], the IC50 is 1000 nM.

With `O=C1CCC(c2ccc(F)cc2)(C2CCN(Cc3ccc(OC(F)(F)F)cc3)CC2)C(=O)N1` (centres unmarked) [Compound 113], the IC50 was 5010 nM.

Consider `O=C1CCC(c2cccc(Cl)c2)(C2CCN(Cc3ccc(OC(F)(F)F)cc3)CC2)C(=O)N1` (centres unmarked) [Compound 114], for which the IC50 is 7940 nM.

Consider `CSc1ccc(CN2CCC(C3(c4ccccc4)CCC(=O)NC3=O)CC2)cc1` (centres unmarked) [Compound 116], for which the IC50 is 5010 nM.

With `CSc1ccc(CN2CCC(C3(c4cccc(Cl)c4)CCC(=O)NC3=O)CC2)cc1` (centres unmarked) [Compound 117], the IC50 is 6310 nM.

Regarding `O=C1CCC(c2ccccc2)(C2CCN(Cc3ccc(OCc4ccccc4)cc3)CC2)C(=O)N1` (centres unmarked) [Compound 119], the IC50 was 6310 nM.

Staying with this assay, now noted: pIC50, -log IC50 (molar) inhibiting 50% of specific I-TAC-induced GTPγS-binding; membranes of human CXCR3-transfected CHO cells.
In turn, `O=C1CCC(c2cccc(C(F)(F)F)c2)(C2CCN(Cc3ccc(Cl)cc3)CC2)C(=O)N1` (centres unmarked) [Compound 65] gave an IC50 of 2510 nM.

`O=C1CCC(c2ccccc2)(C2CCN(Cc3ccc(Cl)c(C(F)(F)F)c3)CC2)C(=O)N1` (centres unmarked) [Compound 86] gave an IC50 of 2000 nM.

For the molecule `O=C1CCC(c2ccccc2)(C2CCN(Cc3ccc(Br)cc3)CC2)C(=O)N1` (centres unmarked) [Compound 87], the IC50 is 794 nM.

In turn, `O=C1CCC(c2ccccc2)(C2CCN(Cc3ccc(Br)cc3)CC2)C(=O)N1` (centres unmarked) [Compound 88] showed an IC50 of 1260 nM.

Staying with this assay, now noted: read-out: pIC50 (converted).
Regarding `O=C1CCC(c2ccccc2)(C2CCN(Cc3ccc(Cl)c(F)c3)CC2)C(=O)N1` (centres unmarked) [Compound 76], the IC50 was 316 nM.

As a reminder, the pIC50 is the negative decadic logarithm of the IC50, by convention in mol/L.
